From patent US20100249243A1, “NOVEL BETA-HYDROXYKETONES AND BETA-ALKOXYKETONES WITH ESTROGENIC ACTIVITY” (priority 2007, published 2010) come the findings set out here.

Like-named read-outs stand apart in the source and are kept apart here.

In test [1] the target is T1, ERα (Homo sapiens, UniProt P03372).
T1 sequence (P03372 1-595): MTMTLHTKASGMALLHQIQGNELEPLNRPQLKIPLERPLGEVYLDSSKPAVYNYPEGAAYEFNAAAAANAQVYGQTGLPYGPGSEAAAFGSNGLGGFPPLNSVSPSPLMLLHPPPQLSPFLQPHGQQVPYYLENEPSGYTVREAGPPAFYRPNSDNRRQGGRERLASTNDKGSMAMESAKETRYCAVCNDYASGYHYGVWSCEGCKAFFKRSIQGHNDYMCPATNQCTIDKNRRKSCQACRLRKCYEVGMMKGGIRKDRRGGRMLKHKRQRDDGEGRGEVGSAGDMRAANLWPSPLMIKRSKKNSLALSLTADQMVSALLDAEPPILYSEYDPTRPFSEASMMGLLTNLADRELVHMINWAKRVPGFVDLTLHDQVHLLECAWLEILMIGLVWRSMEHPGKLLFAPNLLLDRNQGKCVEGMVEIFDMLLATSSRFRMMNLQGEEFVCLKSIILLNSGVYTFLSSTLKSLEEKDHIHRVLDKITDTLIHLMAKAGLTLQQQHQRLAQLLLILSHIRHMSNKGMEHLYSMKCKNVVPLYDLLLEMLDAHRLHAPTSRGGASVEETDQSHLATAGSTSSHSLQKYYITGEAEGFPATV
Kind of test: ERα luciferase reporter (pERE2TATA-LUC) transactivation assay in transfected HEK293 cells. Format: cell-based. Details: expressed in transfected cells; host or cells: HEK293. To be noted: 24 hours; for ERα receptor activation relative to 10 nM E2 corresponding 100: Table 1, sample concentration 10 μM, mean of at least three independent transfections, SEM typically <15%; for ERα in vitro activity (receptor activation relative to 10 nM E2): Table 2, previously published compounds, test compound 10 μM. The protocol: (§1) All other reagents were of reagent grade from Sigma or Fluka. One day before transfection, HEK293 cells were seeded in 48-well plates (70×10^3 cells per well) in phenol-free Dulbecco's modified Eagle medium supplemented with 5% delipidated fetal bovine serum (Sigma) and antibiotics. After a medium change, the cells were transfected for 4 hours with 5 ng ERα or ERβ expression vector, 75 ng reporter plasmid pERE2TATA-LUC and 20 ng control plasmid pCMVβ by the calcium phosphate method. After transfection, the cells received fresh medium containing either vehicle (0.1% v/v) or test compound (10 μM). After 24 hours, the cells were washed, lysed and luciferase and β-galactosidase activities were determined from 20 μl of lysates with the Victor^2TM reader (PerkinElmer Wallac, Turku, Finland). […] The data are means±SEM of at least three independent transfections.
(A reporter such as luciferase makes a cellular process visible.)

In test [2] the target is T2, ERβ (Homo sapiens, UniProt Q92731). As to the kind of experiment: ERβ luciferase reporter (pERE2TATA-LUC) transactivation assay in transfected HEK293 cells. More on the design: expressed in transfected cells; host or cells: HEK293. As to conditions: for Emax at 10 µM: HEK293, 24 h; for ERβ in vitro activity (receptor activation relative to 10 nM E2): Table 2, previously published compounds, test compound 10 μM. Format: cell-based. The protocol: as §1
T2 sequence (Q92731 whole entry): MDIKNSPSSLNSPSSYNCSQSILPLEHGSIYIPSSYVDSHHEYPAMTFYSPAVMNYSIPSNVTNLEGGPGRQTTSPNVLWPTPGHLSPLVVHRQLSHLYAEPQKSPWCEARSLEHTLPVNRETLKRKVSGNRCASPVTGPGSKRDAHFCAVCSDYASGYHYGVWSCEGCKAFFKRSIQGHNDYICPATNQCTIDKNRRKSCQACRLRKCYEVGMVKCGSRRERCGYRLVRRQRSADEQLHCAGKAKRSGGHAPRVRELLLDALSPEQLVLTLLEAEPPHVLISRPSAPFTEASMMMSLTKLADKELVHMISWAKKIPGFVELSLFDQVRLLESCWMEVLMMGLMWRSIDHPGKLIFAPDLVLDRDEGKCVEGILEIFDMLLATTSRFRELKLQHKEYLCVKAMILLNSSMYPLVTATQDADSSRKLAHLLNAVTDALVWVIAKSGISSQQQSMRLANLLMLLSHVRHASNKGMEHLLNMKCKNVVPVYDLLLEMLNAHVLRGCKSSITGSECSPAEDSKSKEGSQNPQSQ

The target in test [3] is T1, ERα. Kind of test: Competitive binding assay against [6,7-3H(N)]estradiol in transiently transfected COS-1 cells, ERα. To be noted: for IC50: ERα IC50 (median inhibition concentration), competition against labeled E2, COS-1 cells with pSG5-hERα, 2 hours at 37° C.; for ERα RBA (relative binding affinity): in comparison to E2 = 100.
Protocol: (§2) Relative binding affinities (RBA) were measured by a competitive assay against [6, 7-^3H(N)]estradiol (PerkinElmer) in transsiently transfected COS-1 cells. […] After 2 hours of incubation at 37° C. the medium was removed. The cells were removed from the wells to 150 μl of 1× phosphate buffered saline (PBS), transferred to Eppendorf tubes and centrifuged at 4° C. using 4000 g for 5 min, and then washed twice with 150 μl of PBS. The cell pellets were dissolved to 50 μl of 0.5M NaOH and incubated for 15 min at 56° C., after which the samples were transferred to liquid twinkle tubes and treated with 3 ml of OptiPhase HiSafe 3 twinkle solution (PerkinElmer).
Test [4] deals with T2, ERβ. Kind of test: Competitive binding assay against [6,7-3H(N)]estradiol in transiently transfected COS-1 cells, ERβ. As to conditions: for IC50: ERβ IC50 (median inhibition concentration), competition against labeled E2, COS-1 cells with pSG5-hERβ, 2 hours at 37° C.; for ERβ RBA (relative binding affinity): in comparison to E2 = 100.
Protocol: as §2
Where [5] appears, read: read-out: ERβ receptor activation relative to 10 nM E2 corresponding 100, Table 1, sample concentration 10 μM, mean of at least three independent transfections, SEM typically <15%.
The mark [6] stands for this setting: read-out: ERβ in vitro activity (receptor activation relative to 10 nM E2), Table 2, previously published compounds, test compound 10 μM.

Take `O=C(CCCc1ccc(O)cc1)CC(O)c1ccccc1` (single isomer, unassigned) [Compound 34a, 1-Hydroxy-6-(4-hydroxy-phenyl)-1-phenyl-hexan-3-one]: the “ERα receptor activation relative to 10 nM E2 corresponding 100” value in test [1] turned out to be 139.2%. Also, the Emax at 10 µM in test [2] (setting [5]) is 170%. Besides, in test [3], the IC50 amounted to 0.9 nM and the “ERα RBA (relative binding affinity)” value amounted to 217.8%. For the same compound, in test [4], the half-maximal inhibitory concentration (IC50) was 3.4 nM and the “ERβ RBA (relative binding affinity)” value is 57.65%.
As to `O=C(CCCc1ccc(O)cc1)CC(O)c1ccccc1` (single isomer, unassigned) [Compound 34b, 1-Hydroxy-6-(4-hydroxy-phenyl)-1-phenyl-hexan-3-one], the “ERα receptor activation relative to 10 nM E2 corresponding 100” value in test [1] is 140.0%. Besides, the “ERβ receptor activation relative to 10 nM E2 corresponding 100” value in test [2] (Table 1, sample concentration 10 μM, 24 hours, mean of at least three independent transfections, SEM typically <15%) came out at 155.3%. In test [3], the IC50 was 2.13 nM and the “ERα RBA (relative binding affinity)” value was 92.02%. Moreover, in test [4], the IC50 was 10.5 nM and the “ERβ RBA (relative binding affinity)” value was 18.67%.
In the case of `O=C(CCCc1ccccc1)CC(O)c1ccccc1` (single isomer, unassigned) [Compound 59a, 1-Hydroxy-1,6-diphenyl-hexan-3-one], the “ERα in vitro activity (receptor activation relative to 10 nM E2)” value in test [1] is reported as 91.4%. In addition, the “ERβ in vitro activity (receptor activation relative to 10 nM E2)” value in test [2] (24 hours) is listed as 147.3%. Besides, in test [3], the 50% inhibitory concentration (IC50) was determined as 1700 nM and the “ERα RBA (relative binding affinity)” value came out at 0.115%. In test [4], the IC50 was 1090 nM and the “ERβ RBA (relative binding affinity)” value came out at 0.180%.
For `O=C(CCCc1ccccc1)CC(O)c1ccccc1` (single isomer, unassigned) [Compound 59b, 1-Hydroxy-1,6-diphenyl-hexan-3-one], the “ERα in vitro activity (receptor activation relative to 10 nM E2)” value in test [1] came out at 59.3%. In addition, the “ERβ in vitro activity (receptor activation relative to 10 nM E2)” value in test [2] (24 hours) was 28.2%. In test [3], the IC50 is 2170 nM and the “ERα RBA (relative binding affinity)” value is 0.090%. For the same compound, in test [4], the half-inhibitory concentration (IC50) is 11000 nM and the “ERβ RBA (relative binding affinity)” value worked out at 0.018%.
On to `O=C(CCc1ccc(O)cc1)CC(O)Cc1ccccc1` (stereo not drawn) [Compound 31ab, 5-Hydroxy-1-(4-hydroxy-phenyl)-6-phenyl-hexan-3-one], for which the “ERα receptor activation relative to 10 nM E2 corresponding 100” value in test [1] is reported as 55.0%. Moreover, the Emax at 10 µM in test [2] (setting [5]) is 107%. Moreover, in test [3], the IC50 was determined as 7900 nM and the “ERα RBA (relative binding affinity)” value was found to be 0.025%. For the same compound, in test [4], the IC50 turned out to be 1250 nM and the “ERβ RBA (relative binding affinity)” value came to 0.157%.
Consider `CC(O)(CC(=O)CCCc1ccccc1)c1ccccc1` (stereo not drawn) [Compound 36ab, 6-Hydroxy-1,6-diphenyl-heptan-4-one], for which the “ERα receptor activation relative to 10 nM E2 corresponding 100” value in test [1] was found to be 83.3%. Also, the Emax at 10 µM in test [2] (setting [5]) was 15.1%. Also, in test [3], the IC50 was found to be 810 nM and the “ERα RBA (relative binding affinity)” value came to 0.242%. Moreover, in test [4], the half-inhibitory concentration (IC50) worked out at 2050 nM and the “ERβ RBA (relative binding affinity)” value came out at 0.096%.
Turning to `O=C(CCCc1ccccc1)CC(O)Cc1ccc(O)cc1` (stereo not drawn) [Compound 39ab, 2-Hydroxy-1-(4-hydroxy-phenyl)-7-phenyl-heptan-4-one], in test [1], the “ERα receptor activation relative to 10 nM E2 corresponding 100” value was determined as 16.0%. Further, the Emax at 10 µM in test [2] (setting [5]) is 2.4%.
As for `O=C(CCCc1ccc(O)cc1)CC(O)Cc1ccccc1` (stereo not drawn) [Compound 40ab, 2-Hydroxy-7-(4-hydroxy-phenyl)-1-phenyl-heptan-4-one], in test [1], the “ERα receptor activation relative to 10 nM E2 corresponding 100” value is listed as 105.2%. In test [2] (setting [5]), the Emax at 10 µM is 82.3%. Also, in test [3], the IC50 was 105 nM and the “ERα RBA (relative binding affinity)” value is reported as 1.867%. In test [4], the half-inhibitory concentration (IC50) worked out at 1080 nM and the “ERβ RBA (relative binding affinity)” value stood at 0.181%.
Consider `O=C(CCCc1ccc(O)c(O)c1)CC(O)Cc1ccccc1` (stereo not drawn) [Compound 41ab, 2-Hydroxy-7-(3,4-dihydroxy-phenyl)-1-phenyl-heptan-4-one], for which the “ERα receptor activation relative to 10 nM E2 corresponding 100” value in test [1] is on record as −0.5%. Besides, the Emax at 10 µM in test [2] (setting [5]) was -0.8%.
As for `O=C(CCCc1ccccc1)CC(O)CCc1ccccc1` (stereo not drawn) [Compound 43ab, 6-Hydroxy-1,8-diphenyl-octan-4-one], the “ERα receptor activation relative to 10 nM E2 corresponding 100” value in test [1] was determined as 2.2%. The Emax at 10 µM in test [2] (setting [5]) is -7.1%.
As to `COC(CCc1ccccc1)CC(=O)Cc1ccccc1` (stereo not drawn) [Compound 44ab, 4-Methoxy-1,6-diphenyl-hexan-2-one], the “ERα receptor activation relative to 10 nM E2 corresponding 100” value in test [1] amounted to 12.0%. Also, the Emax at 10 µM in test [2] (setting [5]) is 0.2%.
Taken in the same sequence, the figures for `COC(CC(=O)CCc1ccccc1)Cc1ccccc1` (stereo not drawn) [Compound 46ab, 5-Methoxy-1,6-diphenyl-hexan-3-one] were 9.9% and 1.3%.
Taken in the same sequence, the figures for `COc1ccc(CC(CC(=O)CCc2ccccc2)OC)cc1` (stereo not drawn) [Compound 47ab, 5-Methoxy-6-(4-methoxyphenyl)-1-phenyl-hexan-3-one] were 28.5% and 4%.
For `COC(CC(=O)CCc1ccccc1)Cc1ccc(F)cc1` (stereo not drawn) [Compound 48ab, 5-Methoxy-6-(4-fluorophenyl)-1-phenyl-hexan-3-one], in that order: 33.1% and 11.2%.
On to `COC(CC(=O)CCc1ccccc1)Cc1cccc2ccccc12` (stereo not drawn) [Compound 49ab, 5-Methoxy-6-naphthalen-1-yl-1-phenyl-hexan-3-one], for which, in test [1], the “ERα receptor activation relative to 10 nM E2 corresponding 100” value is 35.5%. In test [2] (setting [5]), the Emax at 10 µM worked out at 2%.
Consider `COC(CC(=O)CCc1ccccc1)Cc1ccc2ccccc2c1` (stereo not drawn) [Compound 50ab, 5-Methoxy-6-naphthalen-2-yl-1-phenyl-hexan-3-one], for which the “ERα receptor activation relative to 10 nM E2 corresponding 100” value in test [1] is 30.4%. In addition, the Emax at 10 µM in test [2] (setting [5]) turned out to be 12.4%.
As for `COC(CC(=O)CCCc1ccccc1)Cc1ccccc1` (stereo not drawn) [Compound 51ab, 2-Methoxy-1,7-diphenyl-heptan-4-one], in test [1], the “ERα receptor activation relative to 10 nM E2 corresponding 100” value is 24.5%. In test [2] (setting [5]), the Emax at 10 µM stood at 30.4%.
Taken in the same sequence, the figures for `COC(CCc1ccccc1)CC(=O)CCCc1ccccc1` (stereo not drawn) [Compound 52ab, 3-Methoxy-1,8-diphenyl-octan-5-one] were 3.1% and -14.6%.
For `O=C(CC(O)Cc1ccccc1)c1ccccc1` (stereo not drawn) [Compound 53ab, 3-Hydroxy-1,4-diphenyl-butan-1-one], in test [1], the “ERα in vitro activity (receptor activation relative to 10 nM E2)” value was found to be 5.3%. Further, the Emax at 10 µM in test [2] (setting [6]) was 16.9%.
Take `O=C(Cc1ccccc1)CC(O)c1ccccc1` (stereo not drawn) [Compound 55ab, 4-Hydroxy-1,4-diphenyl-butan-2-one]: the “ERα in vitro activity (receptor activation relative to 10 nM E2)” value in test [1] was determined as 0.8%. For the same compound, in test [2] (setting [6]), the Emax at 10 µM amounted to 1.6%.
For `CC(O)(CC(=O)CCc1ccccc1)c1ccccc1` (stereo not drawn) [Compound 57ab, 5-Hydroxy-1,5-diphenyl-hexan-3-one], in that order: 52.1% and 38.4%.
Taken in the same sequence, the figures for `O=C(CCc1ccccc1)CC(O)Cc1ccccc1` (stereo not drawn) [Compound 58ab, 5-Hydroxy-1,6-diphenyl-hexan-3-one] were 12.8% and 0.4%.
Turning to `CC(O)(CC(=O)CCCc1ccccc1)c1ccccc1` (stereo not drawn) [Compound 60ab, 6-Hydroxy-1,6-diphenyl-heptan-4-one], the “ERα in vitro activity (receptor activation relative to 10 nM E2)” value in test [1] was determined as 83.3%. Further, in test [2] (setting [6]), the Emax at 10 µM stood at 15.1%.
For `COC(CC(=O)c1ccccc1)Cc1ccccc1` (stereo not drawn) [Compound 61ab, 3-Methoxy-1,4-diphenyl-butan-1-one], in that order: 0.3% and 18.4%.
For `COC(CCc1ccccc1)CC(=O)c1ccccc1` (stereo not drawn) [Compound 62ab, 3-Methoxy-1,5-diphenyl-pentan-1-one], in that order: 38.1% and 28.8%.

As usually defined, the IC50 is the point on the concentration scale where inhibition reaches its midpoint. A high value points to a need for much substance.
